Data set [1] deals with T1, GST fusion human Keap1 (amino acid residue: 325-624) protein (Homo sapiens, UniProt Q14145).
T1 construct: GST fusion human Keap1 (amino acid residue: 325-624) protein; purchased Protein tech Ag0779
Kind of data set: Keap1-Nrf2 binding inhibition test (fluorescence polarization). Particulars: compound concentration of 100 nM; read-out: inhibition rate. The method, boiled down:
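Fluorescence polarization with FITC-labelled Nrf2 peptide (FITC-Ahx-LDEETGEFL-NH2) and GST-human Keap1 (325-624) in 20 mM Tris pH 7.5, 150 mM NaCl, 0.05% Tween 20, 5 mM DTT, BSA; 30 min at room temperature, ex 482/em 530 nm. Percent inhibition at 100 nM compound, Keap1-free wells = 100%.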
(Fluorescence polarisation rises when a labelled molecule tumbles more slowly, as on binding a larger partner.)

Data set [2] deals with NQO1. Kind of data set: NQO1 enzyme induction test (in vitro) in Hepa1c1c7 cells. It counts as cell-based. Particulars: Mus musculus, Hepa-1c1c7, 48 h, concentration to elevate the NQO1 activity by 1.5 times, about 48 hours, read-out: EC150. The method, boiled down:
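Mouse Hepa1c1c7 cells treated about 48 h with compound (0.1% DMSO final), then lysed. NQO1 activity read as MTT reduction at 540 nm with menadione substrate, 5 min at room temperature, and corrected for cell number by CellTiter-Glo. EC150 is the concentration raising NQO1 activity 1.5-fold.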

The subject of data set [3] is NQO1. Kind of data set: NQO1 expression induction test in mouse kidney (single administration). The format is in vivo. As to conditions: Mus musculus, po, 6 h, BALB/c mouse kidney, 6 hours after administration, ratio to control group. The method, boiled down: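 Female BALB/c mice received a single oral dose of compound in 0.5% methylcellulose, with untreated mice as controls. Six hours later, left-kidney NQO1 mRNA was measured by SYBR real-time RT-PCR normalised to GAPDH. Induction was expressed as the ratio of mean treated to mean control expression.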

The nature of data set [4]: Metabolism test using human liver microsome fractions. It counts as in vitro ADME. As to conditions: human liver microsomes, test compound 10 μmol/L, NADPH and UDP-glucuronic acid, 37° C. Put shortly: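 Compound depletion at 10 μmol/L final, 37 °C, followed by UV-HPLC of acetonitrile-quenched aliquots taken 0, 5, 10, 15, 20, 30 min; incubations contained microsomes (1 mg protein, human or monkey) with NADPH and UDPGA cofactors. Rate = slope over linear range.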
For orientation: Liver microsomes are a subcellular fraction often used to study metabolism.

The structures appear in SMILES notation.

By inhibition is commonly meant the drop in the measured response relative to a control, in per cent. Usually fold induction stands for the ratio of treated to control signal.

T1 sequence (Q14145 325-624): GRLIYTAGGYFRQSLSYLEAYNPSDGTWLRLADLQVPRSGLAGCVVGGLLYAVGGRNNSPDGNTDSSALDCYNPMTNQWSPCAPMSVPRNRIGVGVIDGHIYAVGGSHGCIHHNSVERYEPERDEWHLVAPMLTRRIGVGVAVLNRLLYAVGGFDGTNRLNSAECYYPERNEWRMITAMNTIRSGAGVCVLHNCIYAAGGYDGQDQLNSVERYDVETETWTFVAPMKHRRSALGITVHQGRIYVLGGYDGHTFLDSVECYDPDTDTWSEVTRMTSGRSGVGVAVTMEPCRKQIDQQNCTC

On to `CC[C@@H]1CN(Cc2cc(C(c3ccc4c(nnn4C)c3C)C(C)(C)C(=O)O)ccc2C)Cc2c(ccc3cn(C)nc23)O1` (stereo partly drawn) [Example 22-(b), 3-(1,4-dimethyl-1H-benzo[d][1,2, 3)triazol-5-yl)-3-(3-(((R)-7-ethyl-2-methyl-2,7,8,10-tetrahydro-9H-(1,4]oxazepino[7,6-g]indazol-9-yl)methyl)-4-methylphenyl)-2,2-dimethylpropanoic Acid], for which, in data set [1], the inhibition at 0.1 µM was at least 50%. Moreover, in the data set with NQO1 [2], the EC (1.5-fold NQO1 activity) fell in the range of 0.0005 to 0.005 µM. Besides, in the data set on NQO1 [3], the fold induction at 30 mg/kg is over 6. Besides, the Human metabolic rate result in data set [4] is given as “B (100≤metabolic rate<150 pmol/min/mg protein)”.

On to `CC[C@@H]1CN(Cc2cc(C(c3ccc4c(nnn4C)c3C)C(C)(C)C(=O)O)ccc2C)Cc2cc3ccccc3cc2O1` (stereo partly drawn) [Example 8-(b), 3-(1,4-dimethyl-1H-benzo[d][1,2,3]triazol-5-yl)-3-(3-(((R)-2-ethyl-2,3-dihydronaphtho[2,3-f][1,4]oxazepin-4(5H)-yl)methyl)-4-methylphenyl)-2,2-dimethylpropanoic Acid], for which the inhibition at 0.1 µM in data set [1] is at least 50%. Also, in the data set with NQO1 [2], the EC (1.5-fold NQO1 activity) fell in the range of 0.0005 to 0.005 µM. In addition, the fold induction at 30 mg/kg in the data set on NQO1 [3] lay in the range of 3 to 6. Further, the Human metabolic rate result in data set [4] is recorded as “A (metabolic rate<100 pmol/min/mg protein)”.

In the case of `CC[C@@H]1CN(Cc2cc(C(c3ccc4c(nnn4C)c3C)C(C)(C)C(=O)O)ccc2C)Cc2cc3cnn(C)c3cc2O1` (stereo partly drawn) [Example 50-(b), 3-(1,4-dimethyl-1H-benzo[d][1,2,3]triazol-5-yl)-3-(3-(((R)-8-ethyl-1-methyl-1,5,7,8-tetrahydro-6H-[1,4]oxazepino[6,7-f]indazol-6-yl)methyl)-4-methylphenyl)-2,2-dimethylpropanoic Acid], the inhibition at 0.1 µM in data set [1] is at least 50%. Moreover, in the data set on NQO1 [2], the EC (1.5-fold NQO1 activity) is 0.0005 to 0.005 µM. In the data set with NQO1 [3], the fold induction at 30 mg/kg is over 6. Moreover, in data set [4], the Human metabolic rate entry is recorded as “C (150≤metabolic rate<200 pmol/min/mg protein)”.

For the compound `CC[C@@H]1CN(Cc2cc(C(c3ccc4c(nnn4C)c3C)C(C)(C)C(=O)O)ccc2C)Cc2c(ccc3cnn(C)c23)O1` (stereo partly drawn) [Example 21-(b), 3-(1,4-dimethyl-1H-benzo[d][1,2, 3)triazol-5-yl)-3-(3-(((R)-7-ethyl-1-methyl-1,7,8,10-tetrahydro-9H-(1,4]oxazepino[7,6-g]indazol-9-yl)methyl)-4-methylphenyl)-2,2-dimethylpropanoic Acid], the inhibition at 0.1 µM in data set [1] is at least 50%. The EC (1.5-fold NQO1 activity) in the data set on NQO1 [2] was 0.05 to 0.5 µM. Besides, in the data set on NQO1 [3], the fold induction at 30 mg/kg is at most 3. Besides, in data set [4], the Human metabolic rate entry is recorded as “D (200≤metabolic rate<250 pmol/min/me protein)”.

For `CC[C@@H]1CN(Cc2cc(C(c3ccc4c(nnn4C)c3C)C(C)(C)C(=O)O)ccc2C)Cc2cc3cnccc3cc2O1` (stereo partly drawn) [Example 53, 3-(1,4-dimethyl-1H-benzo[d][1,2,3]triazol-5-yl)-3-(3-(((R)-2-ethyl-2,3-dihydro-[1,4]oxazepino[7,6-g]isoquinolin-4 (5H)-yl)methyl)-4-methylphenyl)-2,2-dimethylpropanoic Acid], the inhibition at 0.1 µM in data set [1] was at least 50%. Moreover, in the data set with NQO1 [2], the EC (1.5-fold NQO1 activity) was 0.0005 to 0.005 µM. Further, the fold induction at 30 mg/kg in the data set with NQO1 [3] was over 6. The Human metabolic rate result in data set [4] was “C (150≤metabolic rate<200 pmol/min/mg protein)”.

Regarding `CC[C@@H]1CN(Cc2cc(C(c3ccc4c(nnn4C)c3C)C(C)(C)C(=O)O)ccc2OC)Cc2cc3ncccc3cc2O1` (stereo partly drawn) [Example 81-(b), 3-(1,4-dimethyl-1H-benzo[d][1,2,3]triazol-5-yl)-3-(3-(((R)-2-ethyl-2,3-dihydro-[1,4]oxazepino[7,6-g]quinolin-4 (5H)-yl)methyl)-4-methoxyphenyl)-2,2-dimethylpropanoic Acid], the inhibition at 0.1 µM in data set [1] is at least 50%. Further, the EC (1.5-fold NQO1 activity) in the data set on NQO1 [2] lay in the range of 0.005 to 0.05 µM. Moreover, the fold induction at 20 mg/kg in the data set with NQO1 [3] (Dose 20 mg/kg) lay within 3 to 6. The Human metabolic rate result in data set [4] is “A (metabolic rate<100 pmol/min/mg protein)”.

The values above are taken from patent publication US12559504B2, “Benzotriazole derivative” (UBE CORPORATION, priority 2019, dated 2026).
